From US4409210A, “Antibiotic compound” (priority 1982, dated 1983)
Like-named read-outs stand apart in the source and are kept apart here. *1 amine or outer side, *2 acyl side, *3 side chain or, on linkers, in order; H or OH if unused. Where a SMILES comes first, the peptide text is derived from it. Bridges are numbered along the chain shown (N, C = ends). [ ]: non-standard residue; d: D form. ξ: configuration not given here. X2 = CCCCCCCCCCCC(CC(=O)[*:1])O[*:2]; ξAsp(3ξ-OH) = NC(C(=O)O)C(O)C(=O)O; X1 = O=C(C1C(O)CCN1[*:1])[*:2]

Columns and labels:
[1] = format: in vivo, mice; conditions: acute toxicity
Method: The acute toxicity of Bu-2517 was determined by intravenous and intramuscular routes. No death occurred up to a dose of 400 mg/kg (iv) or 1600 mg/kg (im).

Blood levels in mice = format: in vivo
Method: Blood levels in mice were determined following an intravenous or intramuscular administration of Bu-2517. Blood samples were collected from orbital sinuses and assayed by the paper disc-agar diffusion method using S. lutea PCI 1001 as the test organism. […] Bu-2517 was not absorbed when administered orally. T1 TABLE 7-Blood Levels in Mice? -Blood levels (mcg/ml)? -intravenous dose? intramuscular dose? -Time after? 10? 30? 10? 30? 100? -administration? mg/kg? mg/kg? mg/kg? mg/kg? mg/kg? -1 min 70 224 ? --? --? --? -5 41 162 ? --? --? --? -10 33 131 ? 11 22 --? -15 --? --? --? --? 45 -20 23 68 13 32 --? -30 18 73 14 48 45 -45 18 64 14 41 --? -1 hr 14 50 13 36 47 -1.5 7.9 32 11 35 --? -2 5.6 23 8.9 28 --? -3 3.1 14 5.3 18 55 -5 --? --? <2.0 ? 8.9 --? -7 --? --? --? 3.8 23 -10 --? --? --? --? 15 -24 --? --? --? --? <0.3 -Half life (hr.) 0.81 0.87 1.6 1.8 3.7 -AUC* (mcg.hr/ml) 39 163 ? 40 137 ? 460 ? -

In the case of `CCCCCCCCCCCC1CC(=O)N2CCCC2C(=O)NC(CO)C(=O)N2CCCC2C(=O)NC(CCCNC(=N)N)C(=O)NC(C(O)C(=O)O)C(=O)NC(CO)C(=O)N2CCC(O)C2C(=O)NC(C(O)C(=O)O)C(=O)O1` (stereo not drawn) [Bu-2517] (PSPR[ξAsp(3ξ-OH)]S[X1][ξAsp(3ξ-OH)]; linker N-C via X2; configuration not given here), the “dose up to which no death occurred” value ([1]; im) is reported as 1600 mg/kg, the “intravenous dose at which mice died” value ([1]; intravenous) is reported as 800 mg/kg and the “dose up to which no death occurred” value ([1]; iv) is reported as 400 mg/kg. The “intravenous LD50” value ([1]; mice, calculated) was 560 mg/kg, the “blood level after 7 hours” value (Blood levels in mice; intramuscular administration of 30 mg/kg) was “measurable blood level was still observed” and the “AUC* (mcg.hr/ml), area under curve” value (Blood levels in mice; intramuscular dose 10 mg/kg) was 40 µg·h/mL. The “Half life” value (Blood levels in mice; intramuscular dose 10 mg/kg) was 1.6 h, the “Blood levels” value (Blood levels in mice; intramuscular dose 10 mg/kg, 10 min) was 11000 ng/mL and the “Blood levels” value (Blood levels in mice; intramuscular dose 10 mg/kg, 20 min) was 13000 ng/mL. The “Blood levels” value (Blood levels in mice; intramuscular dose 10 mg/kg, 30 min) was 14000 ng/mL, the “Blood levels” value (Blood levels in mice; intramuscular dose 10 mg/kg, 45 min) was 14000 ng/mL and the “Blood levels” value (Blood levels in mice; intramuscular dose 10 mg/kg, 1 hr) was 13000 ng/mL. The “Blood levels” value (Blood levels in mice; intramuscular dose 10 mg/kg, 1.5 hr) was 11000 ng/mL, the “Blood levels” value (Blood levels in mice; intramuscular dose 10 mg/kg, 2 hr) was 8900 ng/mL and the “Blood levels” value (Blood levels in mice; intramuscular dose 10 mg/kg, 3 hr) was 5300 ng/mL. The “Blood levels” value (Blood levels in mice; intramuscular dose 10 mg/kg, 5 hr) was less than 2000 ng/mL, the “AUC* (mcg.hr/ml), area under curve” value (Blood levels in mice; intramuscular dose 30 mg/kg) was 137 µg·h/mL and the “Half life” value (Blood levels in mice; intramuscular dose 30 mg/kg) was 1.8 h. For the same compound, the “Blood levels” value (Blood levels in mice; intramuscular dose 30 mg/kg, 10 min) was 22000 ng/mL, the “Blood levels” value (Blood levels in mice; intramuscular dose 30 mg/kg, 20 min) was 32000 ng/mL and the “Blood levels” value (Blood levels in mice; intramuscular dose 30 mg/kg, 30 min) was 48000 ng/mL. For the same compound, the “Blood levels” value (Blood levels in mice; intramuscular dose 30 mg/kg, 45 min) was 41000 ng/mL, the “Blood levels” value (Blood levels in mice; intramuscular dose 30 mg/kg, 1 hr) was 36000 ng/mL and the “Blood levels” value (Blood levels in mice; intramuscular dose 30 mg/kg, 1.5 hr) was 35000 ng/mL. For the same compound, the “Blood levels” value (Blood levels in mice; intramuscular dose 30 mg/kg, 2 hr) was 28000 ng/mL, the “Blood levels” value (Blood levels in mice; intramuscular dose 30 mg/kg, 3 hr) was 18000 ng/mL and the “Blood levels” value (Blood levels in mice; intramuscular dose 30 mg/kg, 5 hr) was 8900 ng/mL. For the same compound, the “Blood levels” value (Blood levels in mice; intramuscular dose 30 mg/kg, 7 hr) was 3800 ng/mL, the “AUC* (mcg.hr/ml), area under curve” value (Blood levels in mice; intramuscular dose 100 mg/kg) was 460 µg·h/mL and the “Half life” value (Blood levels in mice; intramuscular dose 100 mg/kg) was 3.7 h. The “Blood levels” value (Blood levels in mice; intramuscular dose 100 mg/kg, 15 min) was 45000 ng/mL, the “Blood levels” value (Blood levels in mice; intramuscular dose 100 mg/kg, 30 min) was 45000 ng/mL and the “Blood levels” value (Blood levels in mice; intramuscular dose 100 mg/kg, 1 hr) was 47000 ng/mL. The “Blood levels” value (Blood levels in mice; intramuscular dose 100 mg/kg, 3 hr) was 55000 ng/mL, the “Blood levels” value (Blood levels in mice; intramuscular dose 100 mg/kg, 7 hr) was 23000 ng/mL and the “Blood levels” value (Blood levels in mice; intramuscular dose 100 mg/kg, 10 hr) was 15000 ng/mL. The “Blood levels” value (Blood levels in mice; intramuscular dose 100 mg/kg, 24 hr) was less than 300 ng/mL, the “AUC* (mcg.hr/ml), area under curve” value (Blood levels in mice; intravenous dose 10 mg/kg) was 39 µg·h/mL and the “Half life” value (Blood levels in mice; intravenous dose 10 mg/kg) was 0.81 h. For the same compound, the “Blood levels” value (Blood levels in mice; intravenous dose 10 mg/kg, 1 min after administration) was 70000 ng/mL, the “Blood levels” value (Blood levels in mice; intravenous dose 10 mg/kg, 5 min) was 41000 ng/mL and the “Blood levels” value (Blood levels in mice; intravenous dose 10 mg/kg, 10 min) was 33000 ng/mL. For the same compound, the “Blood levels” value (Blood levels in mice; intravenous dose 10 mg/kg, 20 min) was 23000 ng/mL, the “Blood levels” value (Blood levels in mice; intravenous dose 10 mg/kg, 30 min) was 18000 ng/mL and the “Blood levels” value (Blood levels in mice; intravenous dose 10 mg/kg, 45 min) was 18000 ng/mL. The “Blood levels” value (Blood levels in mice; intravenous dose 10 mg/kg, 1 hr) was 14000 ng/mL, the “Blood levels” value (Blood levels in mice; intravenous dose 10 mg/kg, 1.5 hr) was 7900 ng/mL and the “Blood levels” value (Blood levels in mice; intravenous dose 10 mg/kg, 2 hr) was 5600 ng/mL. For the same compound, the “Blood levels” value (Blood levels in mice; intravenous dose 10 mg/kg, 3 hr) was 3100 ng/mL, the “AUC* (mcg.hr/ml), area under curve” value (Blood levels in mice; intravenous dose 30 mg/kg) was 163 µg·h/mL and the “Half life” value (Blood levels in mice; intravenous dose 30 mg/kg) was 0.87 h. The “Blood levels” value (Blood levels in mice; intravenous dose 30 mg/kg, 1 min after administration) was 224000 ng/mL, the “Blood levels” value (Blood levels in mice; intravenous dose 30 mg/kg, 5 min) was 162000 ng/mL and the “Blood levels” value (Blood levels in mice; intravenous dose 30 mg/kg, 10 min) was 131000 ng/mL. The “Blood levels” value (Blood levels in mice; intravenous dose 30 mg/kg, 20 min) was 68000 ng/mL, the “Blood levels” value (Blood levels in mice; intravenous dose 30 mg/kg, 30 min) was 73000 ng/mL and the “Blood levels” value (Blood levels in mice; intravenous dose 30 mg/kg, 45 min) was 64000 ng/mL. The “Blood levels” value (Blood levels in mice; intravenous dose 30 mg/kg, 1 hr) was 50000 ng/mL, the “Blood levels” value (Blood levels in mice; intravenous dose 30 mg/kg, 1.5 hr) was 32000 ng/mL and the “Blood levels” value (Blood levels in mice; intravenous dose 30 mg/kg, 2 hr) was 23000 ng/mL. For the same compound, the “Blood levels” value (Blood levels in mice; intravenous dose 30 mg/kg, 3 hr) was 14000 ng/mL, the “absorption, parenterally” value (Blood levels in mice; intravenous or intramuscular administration) was “well absorbed” and the “absorption when administered orally” value (Blood levels in mice; oral) was “not absorbed”.
